Experimental data from patent publication US20100292231A1, “Indazole Compounds for Treating Inflammatory Disorders, Demyelinating Disorders and Cancers” (priority 2007, published 2010).
Read-outs that look alike come from different tables or passages of the source.

How the values were obtained:
Experiment in all cases: SelectScreen kinase specificity survey
Type in all cases: biochemical
BRSK1 (SAD1) = target: T1, BRSK1 (SAD1) (Homo sapiens, UniProt Q8TDC3)
T1 construct: purchased Invitrogen, Inc. (SelectScreen platform)
Summary of the method: (§1)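 Each kinase was run with its own substrate and optical reporter at 100 micromolar ATP. Inhibitor was added in 5 graded increments, and EC50 was estimated by fitting the abridged dose-response curve to a 4-parameter Hill equation. The survey covered a 230-kinase panel.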

FLT4 (VEGFR3) = target: T2, FLT4 (VEGFR3) (Homo sapiens, UniProt P35916); conditions: estimated, abridged dose response curve, read-out: Kinase inhibitory activity EC50
T2 construct: purchased Invitrogen, Inc. (SelectScreen platform)
Summary of the method: as §1

CSNK1G2 (CK1 gamma 2) = target: T3, CSNK1G2 (CK1 gamma 2) (Homo sapiens, UniProt P78368); conditions: estimated, abridged dose response curve, read-out: Kinase inhibitory activity EC50
T3 construct: purchased Invitrogen (SelectScreen platform)
T3 sequence (P78368 whole entry): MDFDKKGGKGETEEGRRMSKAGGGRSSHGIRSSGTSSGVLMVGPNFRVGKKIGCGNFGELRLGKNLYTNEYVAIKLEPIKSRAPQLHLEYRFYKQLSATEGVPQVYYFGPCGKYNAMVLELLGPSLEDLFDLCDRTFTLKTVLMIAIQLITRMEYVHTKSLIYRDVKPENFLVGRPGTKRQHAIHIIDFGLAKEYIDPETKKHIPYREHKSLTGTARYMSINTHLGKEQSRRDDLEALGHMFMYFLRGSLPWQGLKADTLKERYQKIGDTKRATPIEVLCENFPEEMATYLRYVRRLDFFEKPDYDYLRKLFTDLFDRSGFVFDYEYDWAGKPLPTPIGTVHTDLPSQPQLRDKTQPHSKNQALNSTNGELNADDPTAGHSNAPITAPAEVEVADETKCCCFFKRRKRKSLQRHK
Summary of the method: as §1

DYRK3 = target: T4, DYRK3 (Homo sapiens, UniProt O43781); conditions: estimated, abridged dose response curve, read-out: Kinase inhibitory activity EC50
T4 construct: purchased Invitrogen (SelectScreen platform)
T4 sequence (O43781 whole entry): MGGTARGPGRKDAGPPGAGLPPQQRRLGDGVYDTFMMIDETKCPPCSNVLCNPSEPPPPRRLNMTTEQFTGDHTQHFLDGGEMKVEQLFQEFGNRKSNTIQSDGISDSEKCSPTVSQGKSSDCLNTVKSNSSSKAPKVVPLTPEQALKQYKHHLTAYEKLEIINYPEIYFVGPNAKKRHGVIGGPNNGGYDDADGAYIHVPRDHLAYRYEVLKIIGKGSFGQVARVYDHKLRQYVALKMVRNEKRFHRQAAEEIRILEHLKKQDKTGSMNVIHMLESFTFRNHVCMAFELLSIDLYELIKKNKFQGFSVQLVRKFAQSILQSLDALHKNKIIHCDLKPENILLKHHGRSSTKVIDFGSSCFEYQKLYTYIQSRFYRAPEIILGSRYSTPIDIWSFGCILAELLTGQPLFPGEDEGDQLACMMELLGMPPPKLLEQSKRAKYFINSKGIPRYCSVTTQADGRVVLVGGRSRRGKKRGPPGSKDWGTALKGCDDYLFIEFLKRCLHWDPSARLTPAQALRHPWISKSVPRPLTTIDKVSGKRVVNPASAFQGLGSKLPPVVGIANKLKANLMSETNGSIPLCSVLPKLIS
Summary of the method: as §1

CSNK1G3 (CK1 gamma 3) = target: T5, CSNK1G3 (CK1 gamma 3) (Homo sapiens, UniProt Q9Y6M4); conditions: estimated, abridged dose response curve, read-out: Kinase inhibitory activity EC50
T5 construct: purchased Invitrogen (SelectScreen platform)
T5 sequence (Q9Y6M4 whole entry): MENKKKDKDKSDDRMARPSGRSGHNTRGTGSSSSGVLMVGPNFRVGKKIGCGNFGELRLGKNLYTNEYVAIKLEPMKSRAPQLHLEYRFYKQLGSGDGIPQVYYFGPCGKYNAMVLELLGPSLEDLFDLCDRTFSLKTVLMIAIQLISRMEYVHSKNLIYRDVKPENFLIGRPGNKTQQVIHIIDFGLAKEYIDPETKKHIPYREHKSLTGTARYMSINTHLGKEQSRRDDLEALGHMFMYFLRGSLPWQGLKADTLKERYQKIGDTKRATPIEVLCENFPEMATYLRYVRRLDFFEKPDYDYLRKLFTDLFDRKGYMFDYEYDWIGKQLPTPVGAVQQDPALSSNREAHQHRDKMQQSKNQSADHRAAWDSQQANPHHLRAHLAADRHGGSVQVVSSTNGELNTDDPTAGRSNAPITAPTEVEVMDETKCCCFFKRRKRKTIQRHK
Summary of the method: as §1

JAK2 JH1 JH2 = target: T6, JAK2 JH1 JH2 (Homo sapiens, UniProt O60674); conditions: estimated, abridged dose response curve, read-out: Kinase inhibitory activity EC50
T6 construct: JAK2 JH1 JH2; purchased Invitrogen (SelectScreen platform)
Summary of the method: as §1

FER = target: T7, FER (Homo sapiens, UniProt P16591); conditions: estimated, abridged dose response curve, read-out: Kinase inhibitory activity EC50
T7 construct: purchased Invitrogen (SelectScreen service)
Summary of the method: as §1

PDGFRA V561D = target: T8, PDGFRA V561D (Homo sapiens, UniProt P16234, V561D); conditions: estimated, abridged dose response curve, read-out: Kinase inhibitory activity EC50
T8 construct: purchased Invitrogen (SelectScreen platform)
Summary of the method: as §1

MARK2 = target: T9, MARK2 (Homo sapiens, UniProt Q7KZI7); conditions: estimated, abridged dose response curve, read-out: Kinase inhibitory activity EC50
T9 construct: purchased Invitrogen, Inc. (SelectScreen platform)
Summary of the method: as §1

EPHB4 = target: T10, EPHB4 (Homo sapiens, UniProt P54760); conditions: estimated, abridged dose response curve, read-out: Kinase inhibitory activity EC50
T10 construct: purchased Invitrogen (SelectScreen service)
Summary of the method: as §1

JAK1 = target: T11, JAK1 (Homo sapiens, UniProt P23458); conditions: estimated, abridged dose response curve, read-out: Kinase inhibitory activity EC50
T11 construct: purchased Invitrogen (SelectScreen platform)
Summary of the method: as §1

MAP3K9 (MLK1) = target: T12, MAP3K9 (MLK1) (Homo sapiens, UniProt P80192); conditions: estimated, abridged dose response curve, read-out: Kinase inhibitory activity EC50
T12 construct: purchased Invitrogen, Inc. (SelectScreen platform)
Summary of the method: as §1

AURKC (Aurora C) = target: T13, AURKC (Aurora C) (Homo sapiens, UniProt Q9UQB9); conditions: estimated, abridged dose response curve, read-out: Kinase inhibitory activity EC50
T13 construct: purchased Invitrogen, Inc. (SelectScreen service)
T13 sequence (Q9UQB9 whole entry): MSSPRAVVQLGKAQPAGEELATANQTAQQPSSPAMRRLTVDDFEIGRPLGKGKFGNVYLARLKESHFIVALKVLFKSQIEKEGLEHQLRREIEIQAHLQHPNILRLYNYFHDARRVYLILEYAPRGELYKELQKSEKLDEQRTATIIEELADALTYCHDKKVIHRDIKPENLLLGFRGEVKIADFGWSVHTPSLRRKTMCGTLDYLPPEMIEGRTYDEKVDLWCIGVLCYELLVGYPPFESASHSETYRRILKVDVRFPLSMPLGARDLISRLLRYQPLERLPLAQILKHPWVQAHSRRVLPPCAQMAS
Summary of the method: as §1

JAK2 = target: T14, JAK2 (Homo sapiens, UniProt O60674); conditions: estimated, abridged dose response curve, read-out: Kinase inhibitory activity EC50
T14 construct: purchased Invitrogen (SelectScreen platform)
T14 sequence (O60674 whole entry): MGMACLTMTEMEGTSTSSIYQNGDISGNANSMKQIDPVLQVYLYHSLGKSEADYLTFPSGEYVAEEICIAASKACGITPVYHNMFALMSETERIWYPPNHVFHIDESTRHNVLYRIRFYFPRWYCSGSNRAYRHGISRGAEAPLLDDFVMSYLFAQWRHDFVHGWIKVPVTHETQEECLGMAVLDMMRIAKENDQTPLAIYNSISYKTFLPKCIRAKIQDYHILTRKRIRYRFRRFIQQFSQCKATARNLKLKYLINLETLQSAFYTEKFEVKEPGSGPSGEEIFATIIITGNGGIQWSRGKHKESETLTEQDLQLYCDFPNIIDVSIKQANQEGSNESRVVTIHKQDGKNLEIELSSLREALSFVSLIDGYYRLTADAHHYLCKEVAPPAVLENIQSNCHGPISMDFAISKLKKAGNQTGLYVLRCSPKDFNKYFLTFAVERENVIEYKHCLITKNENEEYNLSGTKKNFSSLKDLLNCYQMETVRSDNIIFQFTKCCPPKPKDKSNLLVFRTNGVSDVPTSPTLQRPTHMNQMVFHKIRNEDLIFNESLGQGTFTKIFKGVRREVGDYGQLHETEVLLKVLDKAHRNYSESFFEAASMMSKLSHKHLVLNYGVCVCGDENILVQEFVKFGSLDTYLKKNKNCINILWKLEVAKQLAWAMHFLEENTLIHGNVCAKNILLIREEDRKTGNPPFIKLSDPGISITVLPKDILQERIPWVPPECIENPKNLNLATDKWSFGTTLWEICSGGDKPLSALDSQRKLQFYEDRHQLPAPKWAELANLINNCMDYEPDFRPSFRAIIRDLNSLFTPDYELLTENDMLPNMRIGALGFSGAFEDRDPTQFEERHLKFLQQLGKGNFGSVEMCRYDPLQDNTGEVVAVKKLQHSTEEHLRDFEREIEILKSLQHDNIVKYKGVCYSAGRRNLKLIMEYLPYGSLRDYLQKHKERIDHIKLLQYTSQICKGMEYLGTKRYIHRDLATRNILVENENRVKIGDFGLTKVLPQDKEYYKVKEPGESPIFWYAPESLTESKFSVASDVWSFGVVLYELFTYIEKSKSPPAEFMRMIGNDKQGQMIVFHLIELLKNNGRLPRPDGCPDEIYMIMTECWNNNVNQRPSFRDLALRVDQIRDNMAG
Summary of the method: as §1

STK23 (MSSK1) = target: T15, STK23 (MSSK1) (Homo sapiens, UniProt Q9UPE1); conditions: estimated, abridged dose response curve, read-out: Kinase inhibitory activity EC50
T15 construct: purchased Invitrogen, Inc. (SelectScreen service)
Summary of the method: as §1

FGFR2 = target: T16, FGFR2 (Homo sapiens, UniProt P21802); conditions: estimated, abridged dose response curve, read-out: Kinase inhibitory activity EC50
T16 construct: purchased Invitrogen (SelectScreen platform)
Summary of the method: as §1

EPHA5 = target: T17, EPHA5 (Homo sapiens, UniProt P54756); conditions: estimated, abridged dose response curve, read-out: Kinase inhibitory activity EC50
T17 construct: purchased Invitrogen (SelectScreen service)
T17 sequence (P54756 25-1037): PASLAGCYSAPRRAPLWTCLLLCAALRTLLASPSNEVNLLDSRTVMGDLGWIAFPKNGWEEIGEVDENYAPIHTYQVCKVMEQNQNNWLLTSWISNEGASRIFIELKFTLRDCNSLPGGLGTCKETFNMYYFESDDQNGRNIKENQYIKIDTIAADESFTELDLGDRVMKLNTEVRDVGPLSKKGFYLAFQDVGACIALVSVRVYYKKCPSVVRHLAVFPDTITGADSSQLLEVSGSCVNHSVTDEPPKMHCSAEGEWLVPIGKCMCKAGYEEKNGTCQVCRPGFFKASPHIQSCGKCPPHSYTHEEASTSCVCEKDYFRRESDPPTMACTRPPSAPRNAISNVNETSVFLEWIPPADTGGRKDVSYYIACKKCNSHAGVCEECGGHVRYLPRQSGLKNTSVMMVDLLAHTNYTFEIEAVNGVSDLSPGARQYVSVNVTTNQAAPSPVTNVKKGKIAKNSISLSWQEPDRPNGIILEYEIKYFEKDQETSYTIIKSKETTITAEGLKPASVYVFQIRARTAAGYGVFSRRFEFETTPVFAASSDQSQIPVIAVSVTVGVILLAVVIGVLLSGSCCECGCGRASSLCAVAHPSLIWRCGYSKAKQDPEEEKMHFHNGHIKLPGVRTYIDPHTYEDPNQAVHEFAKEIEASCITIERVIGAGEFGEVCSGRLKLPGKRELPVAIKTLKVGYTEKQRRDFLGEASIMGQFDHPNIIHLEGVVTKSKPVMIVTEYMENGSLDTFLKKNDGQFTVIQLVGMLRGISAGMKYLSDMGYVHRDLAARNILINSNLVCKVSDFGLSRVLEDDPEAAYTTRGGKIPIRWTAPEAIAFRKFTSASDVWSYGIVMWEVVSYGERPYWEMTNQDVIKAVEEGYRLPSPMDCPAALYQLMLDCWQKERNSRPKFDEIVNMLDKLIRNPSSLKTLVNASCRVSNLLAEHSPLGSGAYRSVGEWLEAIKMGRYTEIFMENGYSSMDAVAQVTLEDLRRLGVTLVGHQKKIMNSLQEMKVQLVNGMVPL
Summary of the method: as §1

PTK2B (FAK2, PYK2) = target: T18, PTK2B (FAK2, PYK2) (Homo sapiens, UniProt Q14289); conditions: estimated, abridged dose response curve, read-out: Kinase inhibitory activity EC50
T18 construct: purchased Invitrogen (SelectScreen service)
Summary of the method: as §1

EPHB1 = target: T19, EPHB1 (Homo sapiens, UniProt P54762)
T19 construct: purchased Invitrogen (SelectScreen service)
Summary of the method: as §1

ERBB4 (HER4) = target: T20, ERBB4 (HER4) (Homo sapiens, UniProt Q15303); conditions: estimated, abridged dose response curve, read-out: Kinase inhibitory activity EC50
T20 construct: purchased Invitrogen (SelectScreen service)
Summary of the method: as §1

MAP2K2 (MEK2) = target: T21, MAP2K2 (MEK2) (Homo sapiens, UniProt P36507); conditions: estimated, abridged dose response curve, read-out: Kinase inhibitory activity EC50
T21 construct: purchased Invitrogen (SelectScreen platform)
Summary of the method: as §1

AKT2 (PKB beta) = target: T22, AKT2 (PKB beta) (Homo sapiens, UniProt P31751); conditions: estimated, abridged dose response curve, read-out: Kinase inhibitory activity EC50
T22 construct: purchased Invitrogen (SelectScreen platform)
T22 sequence (P31751 whole entry): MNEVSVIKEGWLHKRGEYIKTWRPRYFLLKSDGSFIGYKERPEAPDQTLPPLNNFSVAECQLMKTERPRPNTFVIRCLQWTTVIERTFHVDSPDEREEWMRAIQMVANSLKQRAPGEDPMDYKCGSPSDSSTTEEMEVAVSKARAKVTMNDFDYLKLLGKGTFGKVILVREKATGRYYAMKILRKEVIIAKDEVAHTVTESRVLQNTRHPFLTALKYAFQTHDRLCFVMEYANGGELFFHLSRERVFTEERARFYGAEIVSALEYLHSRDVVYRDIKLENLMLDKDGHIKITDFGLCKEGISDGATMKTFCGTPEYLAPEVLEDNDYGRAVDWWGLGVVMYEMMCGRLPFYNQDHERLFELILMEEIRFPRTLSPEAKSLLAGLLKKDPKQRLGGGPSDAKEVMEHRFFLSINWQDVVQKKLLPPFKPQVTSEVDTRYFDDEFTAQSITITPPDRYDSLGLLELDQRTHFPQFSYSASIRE
Summary of the method: as §1

CAMK2A (CaMKII alpha) = target: T23, CAMK2A (CaMKII alpha) (Homo sapiens, UniProt Q9UQM7); conditions: estimated, abridged dose response curve, read-out: Kinase inhibitory activity EC50
T23 construct: purchased Invitrogen, Inc. (SelectScreen platform)
Summary of the method: as §1

MAPKAPK5 (PRAK) = target: T24, MAPKAPK5 (PRAK) (Homo sapiens, UniProt Q8IW41); conditions: estimated, abridged dose response curve, read-out: Kinase inhibitory activity EC50
T24 construct: purchased Invitrogen, Inc. (SelectScreen platform)
Summary of the method: as §1

PHKG1 = target: T25, PHKG1 (Homo sapiens, UniProt Q16816); conditions: estimated, abridged dose response curve, read-out: Kinase inhibitory activity EC50
T25 construct: purchased Invitrogen, Inc. (SelectScreen platform)
Summary of the method: as §1

CSNK1A1 (CK1 alpha 1) = target: T26, CSNK1A1 (CK1 alpha 1) (Homo sapiens, UniProt P48729); conditions: estimated, abridged dose response curve, read-out: Kinase inhibitory activity EC50
T26 construct: purchased Invitrogen (SelectScreen platform)
T26 sequence (P48729 whole entry): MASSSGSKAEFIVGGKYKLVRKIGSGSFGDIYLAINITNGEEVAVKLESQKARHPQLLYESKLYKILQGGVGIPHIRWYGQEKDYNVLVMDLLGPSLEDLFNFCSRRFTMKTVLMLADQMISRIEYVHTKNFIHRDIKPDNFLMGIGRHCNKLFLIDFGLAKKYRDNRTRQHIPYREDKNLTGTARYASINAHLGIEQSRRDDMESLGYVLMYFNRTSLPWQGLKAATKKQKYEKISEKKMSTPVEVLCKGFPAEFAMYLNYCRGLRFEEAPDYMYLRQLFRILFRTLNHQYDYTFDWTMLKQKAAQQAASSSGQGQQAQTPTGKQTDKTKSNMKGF
Summary of the method: as §1

Compound	EC50 (FLT4 (VEGFR3)) [µM]	EC50 (CSNK1G2 (CK1 gamma 2)) [µM]	EC50 (DYRK3) [µM]	EC50 (CSNK1G3 (CK1 gamma 3)) [µM]	EC50 (JAK2 JH1 JH2) [µM]	EC50 (FER) [µM]	EC50 (PDGFRA V561D) [µM]	EC50 (MARK2) [µM]	EC50 (EPHB4) [µM]	EC50 (JAK1) [µM]	EC50 (MAP3K9 (MLK1)) [µM]	EC50 (AURKC (Aurora C)) [µM]	EC50 (JAK2) [µM]	EC50 (STK23 (MSSK1)) [µM]	EC50 (FGFR2) [µM]	EC50 (EPHA5) [µM]	EC50 (PTK2B (FAK2, PYK2)) [µM]	EC50 (ERBB4 (HER4)) [µM]	EC50 (MAP2K2 (MEK2)) [µM]	EC50 (AKT2 (PKB beta)) [µM]	further results
CN(C)CCCNc1ccc2ncn3c4ccc5[nH]ncc5c4c(=O)c1c23 [Compound (IV)]	1.49	> 5	0.38	> 5	> 5	> 5	0.06	3.49	> 5	> 5	> 5	> 5	> 5	> 5	2.86	> 5	> 5	> 5	> 5	> 5	EC50 (BRSK1 (SAD1); BRSK1 (SAD1), estimated, abridged dose response curve, read-out: Kinase inhibitory activity EC50): 1.39 µM; EC50 (EPHB1; EPHB1, estimated, abridged dose response curve, read-out: Kinase inhibitory activity EC50): > 5 µM; EC50 (CAMK2A (CaMKII alpha)): 0.789 µM; EC50 (MAPKAPK5 (PRAK)): > 5 µM; EC50 (PHKG1): 1.01 µM; EC50 (CSNK1A1 (CK1 alpha 1)): > 5 µM
CCN(CC)CCNc1ccc2ncn3c4ccc(O)cc4c(=O)c1c23 [Symadex, 5-(2-(diethylamino)ethylamino)-8-hydroxy-6H-imidazo[4,5,1-de]acridin-6-one, reference compound]	3.96	> 5	0.611	> 5	> 5	> 5	0.083	2.02	> 5	> 5	> 5	> 5	> 5	> 5	4.5	> 5	> 5	> 5	> 5	> 5	EC50 (BRSK1 (SAD1)): 1.93 µM; EC50 (EPHB1): > 5 µM; EC50 (CAMK2A (CaMKII alpha)): > 5 µM; EC50 (MAPKAPK5 (PRAK)): > 5 µM; EC50 (PHKG1): 2.2 µM; EC50 (CSNK1A1 (CK1 alpha 1)): 3.48 µM
